These results are taken from publication PMC11569172 (Scientific Reports, 2024).

For one assay, the target named is STING (Homo sapiens, UniProt Q86WV6). The assay is described as follows: SPR. The assay is classed as binding.
For a further assay, the target named is cGAS (Homo sapiens, UniProt Q8N884). Nature of the assay: SPR. The assay is classed as binding.

Usually Kd stands for the concentration at which binding is half-saturated. Read a low Kd as a tighter complex.

Chain of STING (Q86WV6 whole entry): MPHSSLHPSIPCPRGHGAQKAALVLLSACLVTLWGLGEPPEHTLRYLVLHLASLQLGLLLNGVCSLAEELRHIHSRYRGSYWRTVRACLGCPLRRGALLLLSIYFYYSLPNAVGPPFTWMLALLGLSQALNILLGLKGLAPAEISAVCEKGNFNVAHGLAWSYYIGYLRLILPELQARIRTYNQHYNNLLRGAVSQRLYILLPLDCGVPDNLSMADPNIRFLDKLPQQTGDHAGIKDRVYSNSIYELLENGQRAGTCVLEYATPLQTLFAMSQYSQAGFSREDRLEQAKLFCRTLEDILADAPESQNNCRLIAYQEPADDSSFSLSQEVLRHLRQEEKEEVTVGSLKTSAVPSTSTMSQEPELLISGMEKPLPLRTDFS
Chain of cGAS (Q8N884 whole entry): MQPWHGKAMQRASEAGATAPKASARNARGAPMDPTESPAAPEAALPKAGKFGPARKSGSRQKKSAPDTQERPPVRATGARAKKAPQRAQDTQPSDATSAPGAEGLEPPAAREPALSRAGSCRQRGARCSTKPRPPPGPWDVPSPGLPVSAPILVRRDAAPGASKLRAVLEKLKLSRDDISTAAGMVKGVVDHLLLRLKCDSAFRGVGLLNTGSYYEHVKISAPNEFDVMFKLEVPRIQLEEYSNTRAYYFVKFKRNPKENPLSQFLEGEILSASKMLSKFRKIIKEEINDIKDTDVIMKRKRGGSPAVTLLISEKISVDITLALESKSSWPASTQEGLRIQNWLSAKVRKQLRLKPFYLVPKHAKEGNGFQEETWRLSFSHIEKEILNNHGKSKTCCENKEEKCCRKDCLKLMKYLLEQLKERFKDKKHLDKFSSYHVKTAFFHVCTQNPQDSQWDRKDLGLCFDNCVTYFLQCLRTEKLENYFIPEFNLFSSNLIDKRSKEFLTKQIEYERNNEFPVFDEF

For `COc1cc(O)c2c(=O)c(O)c(-c3ccc(O)cc3)oc2c1` [RH, rhamnocitrin], the Kd at STING was found to be 6.75 µM; on cGAS it was 2.6 µM.
